Results on 2 compounds are retold here after patent US20240390400A1, “ENPP1 INHIBITORS AS INHIBITORS OF METASTASIS” (Angarus Therapeutics, Inc., priority 2021, published 2024).

“And” between values parts separate entries of the source, which are not always exact repeats. Identical values can stand only once.

In one series the test system is EMT6 tumor cells. Put plainly: EMT-6 tumor model (tumor volume and lung metastasis). Format: in vivo, female Balb/c mice. The protocol:
Test animals were female Balb/c mice aged 5-8 weeks at inoculation.
The EMT6 tumor cells were maintained in vitro with DMEM medium supplemented with 10% fetal bovine serum at 37° C. in an atmosphere of 5% CO2 in air. The cells in exponential growth phase were harvested and quantitated by cell counter before tumor inoculation.
Each mouse was inoculated subcutaneously in the right flank region with EMT6 tumor cells (5×10^5) in 0.1 ml of PBS for tumor development.
Staggered inoculation was performed. G1, 2, 3, 6, 7 were inoculated one day before G4, 5, 8, 9, 10.
The randomization started when the mean tumor size reached approximately 80 (60-110) mm^3. 100 mice were enrolled in the study. All animals were randomly allocated to 10 study groups. Randomization was performed based on “Matched distribution” method (StudyDirector™ software, version 3.1.399.19).
Staggered randomization was performed. G1, 2, 3, 6, 7 were randomized one day before G4, 5, 8, 9, 10.
The date of tumor randomization was denoted as day 0.
After tumor cells inoculation, the animals were checked daily for morbidity and mortality. During routine monitoring, the animals were checked for any effects of tumor growth and treatments on behavior such as mobility, food and water consumption, body weight gain/loss (body weights were measured twice per week after randomization), eye/hair matting and any other abnormalities. Mortality and observed clinical signs were recorded for individual animals in detail.
Tumor volumes were measured twice per week in two dimensions using a caliper, and the volume was expressed in mm^3 using the formula: “V=(L×W×W)/2, where V is tumor volume, L is tumor length (the longest tumor dimension) and W is tumor width (the longest tumor dimension perpendicular to L). (Tumor weight was measured at the end of study). Dosing as well as tumor and body weight measurements were conducted in a Laminar Flow Cabinet.
The study was terminated at 4 weeks post randomization. Individual animals were euthanized when TV>3000 mm^3.
For comparison between two groups, a Student's t-test was performed. For comparison among three or more groups, an one-way ANOVA was performed followed by multiple comparison procedures. All data were analyzed using SPSS 18.0 and/or GraphPad Prism 5.0. P<0.05 is considered statistically significant.
Animals were treated with vehicle, cpd 76, radiotherapy, or anti-PD-L1, or a combination of treatments. Compound 76 was dosed 50 mg/kg and formulated 5 mg/ml in PBS. Radiotherapy used the X-RAD 225Cx SmART Small Animal Radiation Therapy System (Crownbio). Ten animals were in each group and dosing was performed as in Table 4.

The nature of series [1]: Animal weight in 4T1 tumor model study. Format: in vivo, Mus musculus, BALB/c. To be noted: throughout the study; Groups 3 and 4 until Day 21, Groups 1 and 2 until Day 25.
Experimental: All treatment groups were compared to the vehicle control given subcutaneously once a day on Days 7, 8, 9, 14, 15 and 16 (Group 1).
At necropsies, animals were weighed, and a final in vivo tumor volume measurement was performed.

Consider `COc1cccc2c(N3CCC(CCP(=O)(O)O)CC3)ncnc12` [Compound 76], for which the “effect on tumor growth” value in the series with EMT6 tumor cells (Compound 76 50 mg/kg QD 1-7 combined with IR and aPD-L1 (triple combo)) is recorded as “synergistic effect”. In the series with EMT6 tumor cells (Compound 76 QD 1-7 d combined with aPD-L1 (Groups 9 and 10), study termination day 29), the “lung metastasis (animals with metastasis / animals)” value is reported as 0/20. Moreover, in the series on EMT6 tumor cells (single agent, Compound 76 50 mg/kg QD 1-7 only or 3 d on/4 d off for 4 weeks, aPD-L1 2.5 mg/kg), the “effect on tumor volume / tumor growth” value was “no effect on tumor volume”. Further, the “lung metastasis (animals with metastasis / animals in group)” value in the series with EMT6 tumor cells (single agent, study termination day 29) is 7/10 and 8/10.
On to `COc1cccc2c1C(=O)c1c(O)c3c(c(O)c1C2=O)C[C@@](O)(C(=O)CO)C[C@@H]3O[C@H]1C[C@H](N)[C@H](O)[C@H](C)O1` [doxorubicin, Doxorubicin], for which the mean animal weights result in series [1] was “continuously decreased”.
